Test results published in US20240270762A1, “PENICILLIN-BINDING PROTEIN INHIBITORS” (priority 2021, published 2024).
Values after ≈ are worked out from the molar mass of the structure shown.

Tests used:
N. gonorrhoeae MS11 = test: Liquid broth MIC in Fastidious broth; settings: Neisseria gonorrhoeae, MS11, read-out: Minimum Inhibitory Concentration (MIC), N. gonorrhoeae MS11
N. gonorrhoeae CDC-0197 = test: Liquid broth MIC in Fastidious broth; settings: Neisseria gonorrhoeae, CDC0197, read-out: Minimum Inhibitory Concentration (MIC), N. gonorrhoeae CDC-0197
Experimental: ATCC 49226, FA1090, MS11, WHO G, WHO L, and WHO M produce wild type or wild-type like PBP2. WHO K, WHO X, WHO Z, WHO Q, and CDC-0197 produce mosaic PBP2. Liquid broth-based assays were used for antibacterial testing of PBP inhibitors in Neisseria gonorrhoeae. Briefly, cryo-preserved bacterial cultures of clinical strains were streaked for isolation on Chocolate Agar (72 g/L (2×) GC Agar Base (BD #228950) and 2% (2×) Hemoglobin was autoclaved at 121° C. for 20 minutes to sterilize. Once cooled to ˜50° C. the 2×GC Agar Base and 2× Hemoglobin solutions are combined and 1% IsoVitaleX Enrichment (BD #211876) was added to the solution). Strains were incubated at 36° C. and 5% CO2 to allow growth of colonies, 24 hours before inoculum preparation. 2-fold serial dilutions of test compounds were conducted in a 96 well plate with a final volume of 75 μL per well at 2-fold the final desired concentration in Fastidious broth (Remel #R07664). For preparation of assay inoculum, a direct suspension was prepared by aseptically swabbing 10-15 colonies from agar plates into culture tubes containing 2 mL of fresh sterile saline. After the dilution plates were set up, direct suspensions were then diluted in a cuvette containing sterile saline and the optical density was measured at 600 nm. Inocula were diluted such that 75 μL of this culture in Fastidious broth results in a starting bacterial concentration of 5×10^5 CFU/mL when added to the dilution plates. The plates were incubated for ˜24 hours at 36° C. and 5% CO2.

N. gonorrhoeae WHO Q = test: Liquid broth MIC in Fastidious broth; settings: Neisseria gonorrhoeae, read-out: Minimum Inhibitory Concentration (MIC), N. gonorrhoeae WHO Q
N. gonorrhoeae WHO L = test: Liquid broth MIC in Fastidious broth; settings: Neisseria gonorrhoeae, read-out: Minimum Inhibitory Concentration (MIC), N. gonorrhoeae WHO L
A. baumannii CDC-0045 = test: microbe, parasite or virus in culture; assay type: cell-based; settings: Acinetobacter baumannii, CDC0045, read-out: MIC, A. baumannii CDC-0045
A. baumannii 1258916 = test: microbe, parasite or virus in culture; assay type: cell-based, Acinetobacter baumannii; settings: Acinetobacter baumannii, 1258916, read-out: MIC, A. baumannii 1258916
P. aeruginosa ATCC 35151 = test: microbe, parasite or virus in culture; assay type: cell-based; settings: Pseudomonas aeruginosa, ATCC35151, read-out: Minimum inhibitory concentration, P. aeruginosa ATCC 35151
[1] = target: T1, PBP3 from Acinetobacter baumannii (ATCC 19606) (Acinetobacter baumannii, UniProt A0ABX6CK25); test: Bocillin-FL fluorescence polarization competition binding, A. baumannii PBP3; settings: fluorescence polarization competition binding assay using Bocillin-FL; read-out: A. baumannii PBP3 Potency
T1 sequence (A0ABX6CK25 64-610): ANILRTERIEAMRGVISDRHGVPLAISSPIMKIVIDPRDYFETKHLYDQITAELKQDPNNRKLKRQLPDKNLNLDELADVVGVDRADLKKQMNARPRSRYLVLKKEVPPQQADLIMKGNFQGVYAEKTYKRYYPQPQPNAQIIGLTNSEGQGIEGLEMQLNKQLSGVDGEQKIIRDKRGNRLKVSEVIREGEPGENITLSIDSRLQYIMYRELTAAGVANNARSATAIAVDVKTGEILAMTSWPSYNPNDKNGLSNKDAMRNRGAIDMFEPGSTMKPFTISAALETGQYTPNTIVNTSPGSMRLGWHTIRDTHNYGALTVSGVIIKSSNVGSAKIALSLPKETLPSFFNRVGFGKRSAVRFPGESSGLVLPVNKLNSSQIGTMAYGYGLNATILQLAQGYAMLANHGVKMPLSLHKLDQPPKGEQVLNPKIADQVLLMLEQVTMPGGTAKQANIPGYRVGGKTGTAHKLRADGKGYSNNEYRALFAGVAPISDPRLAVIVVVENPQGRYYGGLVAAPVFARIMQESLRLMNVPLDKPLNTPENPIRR
How it was run: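 Purified PBP was preincubated with inhibitor (E. coli PBP3 1.5 μM, 30 min; P. aeruginosa PBP3 0.75 μM, A. baumannii PBP3 0.2 μM and PBP1a 1 μM, 15 min), then Bocillin-FL (0.1 μM; 0.05 μM for PBP1a) added and FP read up to 60 min. EC50 = 50% loss of bound probe.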

P. aeruginosa CDC-0095 = test: microbe, parasite or virus in culture; assay type: cell-based; settings: Pseudomonas aeruginosa, CDC0095, read-out: Minimum inhibitory concentration, P. aeruginosa CDC-0095
[2] = tested on: B. thailandensis ATCC 700388; test: microbe, parasite or virus in culture; assay type: cell-based; settings: Burkholderia thailandensis, ATCC700388, read-out: Minimum inhibitory concentration (MIC), B. thailandensis ATCC 700388

Compound | MIC (N. gonorrhoeae MS11) [µg/mL] | MIC (N. gonorrhoeae CDC-0197) [µg/mL] | MIC (N. gonorrhoeae WHO Q) [µg/mL] | MIC (N. gonorrhoeae WHO L) [µg/mL] | MIC (A. baumannii CDC-0045) [µg/mL] | MIC (A. baumannii 1258916) [µg/mL] | MIC (P. aeruginosa ATCC 35151) [µg/mL] | IC50 [1] [µM] | MIC (P. aeruginosa CDC-0095) [µg/mL] | MIC [2] [µg/mL]
O=C(O)c1cccc2c1OB(O)[C@@H](NC(=O)[C@@H](NC(=O)c1cnc3n(c1=O)CCS3)c1ccc(P(=O)(O)O)cc1)C2 (single isomer, unassigned) [Example 196] | 16 to 32 (≈ 26.7 to 53.3 µM) | 16 to 32 (≈ 26.7 to 53.3 µM) | 16 to 32 (≈ 26.7 to 53.3 µM) | 16 to 32 (≈ 26.7 to 53.3 µM) | – | – | – | – | – | –
O=C(O)c1cccc2c1OB(O)[C@@H](NC(=O)[C@H](NC(=O)c1cnc3n(c1=O)CCS3)c1ccc(P(=O)(O)O)cc1)C2 (single isomer, unassigned) [Example 197] | 16 to 32 (≈ 26.7 to 53.3 µM) | 16 to 32 (≈ 26.7 to 53.3 µM) | 16 to 32 (≈ 26.7 to 53.3 µM) | 16 to 32 (≈ 26.7 to 53.3 µM) | – | – | – | – | – | –
CCN1CCN(C(=O)NC(C(=O)N[C@H]2Cc3cccc(C(=O)O)c3OB2O)c2ccc(P(=O)(O)O)c(F)c2O)C(=O)C1=O (stereo partly drawn) [Example 198, (3R)-3-(2-(4-ethyl-2,3-dioxopiperazine-1-carboxamido)-2-(3-fluoro-2-hydroxy-4-phosphonophenyl)acetamido)-2-hydroxy-3,4-dihydro-2H-benzo[e][1,2]oxaborinine-8-carboxylic acid] | < 1 | < 1 | 1 to 2 (≈ 1.61 to 3.21 µM) | 1 to 2 (≈ 1.61 to 3.21 µM) | – | – | – | – | – | –
CN(CCN1CCN(C(=O)N[C@@H](C(=O)N[C@H]2Cc3ccc(F)c(C(=O)O)c3OB2O)c2cc(F)c(O)c(O)c2Cl)C(=O)C1=O)Cc1nccs1 [Example 200, (R)-3-((R)-2-(2-chloro-5-fluoro-3,4-dihydroxyphenyl)-2-(4-(2-(methyl(thiazol-2-ylmethyl)amino)ethyl)-2,3-dioxopiperazine-1-carboxamido)acetamido)-7-fluoro-2-hydroxy-3,4-dihydro-2H-benzo[e][1,2]oxaborinine-8-carboxylic acid] | 16 to 32 (≈ 21.7 to 43.4 µM) | > 64 | 16 to 32 (≈ 21.7 to 43.4 µM) | > 64 | < 1 | < 1 | < 1 | < 10 | < 1 | < 1
CN(CCN1CCN(C(=O)N[C@@H](C(=O)N[C@H]2Cc3ccc(F)c(C(=O)O)c3OB2O)c2cc(F)c(O)c(O)c2Cl)C(=O)C1=O)Cc1cccnc1 [Example 201, (R)-3-((R)-2-(2-chloro-5-fluoro-3,4-dihydroxyphenyl)-2-(4-(2-(methyl(pyridin-3-ylmethyl)amino)ethyl)-2,3-dioxopiperazine-1-carboxamido)acetamido)-7-fluoro-2-hydroxy-3,4-dihydro-2H-benzo[e][1,2]oxaborinine-8-carboxylic acid] | 16 to 32 (≈ 21.9 to 43.8 µM) | > 64 | 16 to 32 (≈ 21.9 to 43.8 µM) | > 64 | < 1 | < 1 | < 1 | < 10 | < 1 | < 1
O=C(NCCCN1CCN(C(=O)NC(C(=O)N[C@H]2Cc3ccc(F)c(C(=O)O)c3OB2O)c2cc(F)c(O)c(O)c2Cl)C(=O)C1=O)c1ccccc1 (stereo partly drawn) [Example 202, (3R)-3-(2-(4-(3-benzamidopropyl)-2,3-dioxopiperazine-1-carboxamido)-2-(2-chloro-5-fluoro-3,4-dihydroxyphenyl)acetamido)-7-fluoro-2-hydroxy-3,4-dihydro-2H-benzo[e][1,2]oxaborinine-8-carboxylic acid] | 16 to 32 (≈ 21.5 to 43 µM) | > 64 | > 64 | > 64 | < 1 | < 1 | < 1 | < 10 | 2 to 4 (≈ 2.69 to 5.38 µM) | 8 to 16 (≈ 10.8 to 21.5 µM)
O=C(NCCCN1CCN(C(=O)NC(C(=O)N[C@H]2Cc3ccc(F)c(C(=O)O)c3OB2O)c2cc(F)c(O)c(O)c2Cl)C(=O)C1=O)c1ccc(O)cc1 (stereo partly drawn) [Example 203, (3R)-3-(2-(2-chloro-5-fluoro-3,4-dihydroxyphenyl)-2-(4-(3-(4-hydroxybenzamido)propyl)-2,3-dioxopiperazine-1-carboxamido)acetamido)-7-fluoro-2-hydroxy-3,4-dihydro-2H-benzo[e][1,2]oxaborinine-8-carboxylic acid] | 4 to 8 (≈ 5.26 to 10.5 µM) | 16 to 32 (≈ 21.1 to 42.1 µM) | 16 to 32 (≈ 21.1 to 42.1 µM) | 16 to 32 (≈ 21.1 to 42.1 µM) | < 1 | < 1 | < 1 | < 10 | 2 to 4 (≈ 2.63 to 5.26 µM) | < 1
O=C(NCCCN1CCN(C(=O)NC(C(=O)N[C@H]2Cc3ccc(F)c(C(=O)O)c3OB2O)c2cc(F)c(O)c(O)c2Cl)C(=O)C1=O)c1cccc(O)c1 (stereo partly drawn) [Example 204, (3R)-3-(2-(2-chloro-5-fluoro-3,4-dihydroxyphenyl)-2-(4-(3-(3-hydroxybenzamido)propyl)-2,3-dioxopiperazine-1-carboxamido)acetamido)-7-fluoro-2-hydroxy-3,4-dihydro-2H-benzo[e][1,2]oxaborinine-8-carboxylic acid] | 16 to 32 (≈ 21.1 to 42.1 µM) | 16 to 32 (≈ 21.1 to 42.1 µM) | > 64 | > 64 | < 1 | < 1 | < 1 | < 10 | < 1 | 2 to 4 (≈ 2.63 to 5.26 µM)
O=C(NCCCN1CCN(C(=O)NC(C(=O)N[C@H]2Cc3ccc(F)c(C(=O)O)c3OB2O)c2cc(F)c(O)c(O)c2Cl)C(=O)C1=O)c1ccncc1 (stereo partly drawn) [Example 205, (3R)-3-(2-(2-chloro-5-fluoro-3,4-dihydroxyphenyl)-2-(4-(3-(isonicotinamido)propyl)-2,3-dioxopiperazine-1-carboxamido)acetamido)-7-fluoro-2-hydroxy-3,4-dihydro-2H-benzo[e][1,2]oxaborinine-8-carboxylic acid] | 4 to 8 (≈ 5.37 to 10.7 µM) | 16 to 32 (≈ 21.5 to 43 µM) | 16 to 32 (≈ 21.5 to 43 µM) | > 64 | < 1 | < 1 | < 1 | < 10 | < 1 | < 1
O=C(NCCCN1CCN(C(=O)NC(C(=O)N[C@H]2Cc3ccc(F)c(C(=O)O)c3OB2O)c2cc(F)c(O)c(O)c2Cl)C(=O)C1=O)Nc1cccc(O)c1 (stereo partly drawn) [Example 206, (3R)-3-(2-(2-chloro-5-fluoro-3,4-dihydroxyphenyl)-2-(4-(3-(3-(3-hydroxyphenyl)ureido)propyl)-2,3-dioxopiperazine-1-carboxamido)acetamido)-7-fluoro-2-hydroxy-3,4-dihydro-2H-benzo[e][1,2]oxaborinine-8-carboxylic acid] | 16 to 32 (≈ 20.6 to 41.3 µM) | 16 to 32 (≈ 20.6 to 41.3 µM) | 16 to 32 (≈ 20.6 to 41.3 µM) | > 64 | < 1 | < 1 | < 1 | < 10 | < 1 | 2 to 4 (≈ 2.58 to 5.16 µM)
O=C(CN1CCN(C(=O)NC(C(=O)N[C@H]2Cc3ccc(F)c(C(=O)O)c3OB2O)c2cc(F)c(O)c(O)c2Cl)C(=O)C1=O)NCc1ccc(O)cc1 (stereo partly drawn) [Example 236, (3R)-3-(2-(2-chloro-5-fluoro-3,4-dihydroxyphenyl)-2-(4-(2-((4-hydroxybenzyl)amino)-2-oxoethyl)-2,3-dioxopiperazine-1-carboxamido)acetamido)-7-fluoro-2-hydroxy-3,4-dihydro-2H-benzo[e][1,2]oxaborinine-8-carboxylic acid] | – | – | – | – | 8 to 16 (≈ 10.7 to 21.5 µM) | 2 to 4 (≈ 2.68 to 5.36 µM) | – | < 10 | – | 8 to 16 (≈ 10.7 to 21.5 µM)
O=C(CN1CCN(C(=O)NC(C(=O)N[C@H]2Cc3ccc(F)c(C(=O)O)c3OB2O)c2cc(F)c(O)c(O)c2Cl)C(=O)C1=O)NCc1ccccc1 (some centres unmarked) [Example 238] | 16 to 32 (≈ 21.9 to 43.8 µM) | 16 to 32 (≈ 21.9 to 43.8 µM) | > 64 | > 64 | – | 2 to 4 (≈ 2.74 to 5.48 µM) | < 1 | < 10 | 2 to 4 (≈ 2.74 to 5.48 µM) | 8 to 16 (≈ 11 to 21.9 µM)
